B1: GCSF: granulocyte colony-stimulating factor (protein, UniProt P09919 31-207, looked up)
Granulocyte …: TPLGPASSLPQSFLLKCLEQVRKIQGDGAALQEKLVSECATYKLCHPEELVLLGHSLGIPWAPLSSCPSQALQLAGCLSQLHSGLFLYQGLLQALEGISPELGPTLDTLQLDVADFATTIWQQMEELGMAPALQPTQGAMPAFASAFQRRAGGVLVASHLQSFLEVSYRVLRHLAQP

Test system: hESCs
Experiment: Cytokine matrix: serum-free EB hematopoietic differentiation, surface markers by flow cytometry
Format: cell-based, human
Experimental: Cells were collected from each well/condition and washed once with media. The cell pellet was digested using TrypLE™ or 0.5% trypsin for 5-10 minutes in a 37° C. incubator followed by washes with media and passage through a 70-μm cell strainer. […] Non-viable cells were excluded with 7-aminoactinomycin D (7-AAD, BD Biosciences). Live cell analysis was performed on a FACSCalibur™ or Accuri flow cytometer and Cell Quest software. hESCs adapted to feeder free growth on matrigel maintained using mTESR were preconditioned for three days in the presence of X-vivo-15 containing 0.1 ng/ml TGF-β and 20 ng/ml FGF-2. Cells were harvested using TrypLE for 6 minutes at 37 C. TrypLE™ was neutralized using EB basal media containing 1 μM ROCK inhibitor (H-1152), Soybean trypsin inhibitor (0.25 mg/ml). The cells were washed once in EB basal media containing 1 μM ROCK inhibitor and soybean trypsin inhibitor (0.25 mg/ml). The cells were plated in low attachment plates in EB basal media containing 1 μM ROCK inhibitor and soybean trypsin inhibitor (0.25 mg/ml). The media was changed the next day to EB basal media containing different cytokine formulations. […] The cytokine combinations used are listed below in Table 3. The EB cultures were half fed with fresh differentiation media every two days. The EB cultures were harvested on day 8, 12 and 17 of differentiation. The EB cultures were harvested by spinning down all the cells and digesting the EBs with TrypLE™ or 0.5% trypsin. The phenotype of the progenitor cell types was analyzed by flow cytometry and the cells were plated in methylcellulose media for CFU assays. “FLT3” refers to the Flt3 ligand below.

Molecule | CD31 expressing cells (DAY 8, factor ABSENT) [%] | CD34 expressing cells (DAY 8, factor ABSENT) [%] | CD43 expressing cells (DAY 8, factor ABSENT) [%] | CD45 expressing cells (DAY 8, factor ABSENT) [%] | FLK-1 expressing cells (DAY 8, factor ABSENT) [%] | CD31 expressing cells (DAY 8, factor PRESENT) [%] | CD34 expressing cells (DAY 8, factor PRESENT) [%] | CD43 expressing cells (DAY 8, factor PRESENT) [%] | CD45 expressing cells (DAY 8, factor PRESENT) [%] | FLK-1 expressing cells (DAY 8, factor PRESENT) [%] | CD31 expressing cells (DAY 12, factor ABSENT) [%] | CD34 expressing cells (DAY 12, factor ABSENT) [%] | CD43 expressing cells (DAY 12, factor ABSENT) [%] | CD45 expressing cells (DAY 12, factor ABSENT) [%] | FLK-1 expressing cells (DAY 12, factor ABSENT) [%] | CD31 expressing cells (DAY 12, factor PRESENT) [%] | CD34 expressing cells (DAY 12, factor PRESENT) [%] | CD43 expressing cells (DAY 12, factor PRESENT) [%] | CD45 expressing cells (DAY 12, factor PRESENT) [%] | FLK-1 expressing cells (DAY 12, factor PRESENT) [%] | also measured
SCF: Stem cell factor, a cytokine which binds CD117 (c-Kit) | 0.7 | 0.8 | 0.8 | 0.2 | 1.9 | 0.9 | 1.5 | 1.0 | 0.2 | 2.0 | 1.3 | 1.7 | 1.2 | 1.5 | 0.3 | 2.6 | 2.6 | 3.2 | 2.4 | 0.6 | CD31 expressing cells (DAY 17, factor ABSENT): 3.9%; CD34 expressing cells (DAY 17, factor ABSENT): 2.3%; CD43 expressing cells (DAY 17, factor ABSENT): 4.1%; CD45 expressing cells (DAY 17, factor ABSENT): 4.0%; FLK-1 expressing cells (DAY 17, factor ABSENT): 1.4%; CD31 expressing cells (DAY 17, factor PRESENT): 9.3%; CD34 expressing cells (DAY 17, factor PRESENT): 2.6%; CD43 expressing cells (DAY 17, factor PRESENT): 9.8%; CD45 expressing cells (DAY 17, factor PRESENT): 9.6%; FLK-1 expressing cells (DAY 17, factor PRESENT): 2.2%
TPO: Thrombopoietin, a glycoprotein hormone | 0.8 | 1.0 | 1.0 | 0.2 | 1.9 | 0.8 | 1.3 | 0.8 | 0.2 | 1.9 | 2.3 | 2.2 | 2.2 | 2.6 | 0.7 | 1.7 | 2.2 | 2.3 | 1.5 | 0.3 | CD31 expressing cells (DAY 17, factor ABSENT): 4.8%; CD34 expressing cells (DAY 17, factor ABSENT): 2.5%; CD43 expressing cells (DAY 17, factor ABSENT): 4.8%; CD45 expressing cells (DAY 17, factor ABSENT): 4.9%; FLK-1 expressing cells (DAY 17, factor ABSENT): 1.7%; CD31 expressing cells (DAY 17, factor PRESENT): 8.6%; CD34 expressing cells (DAY 17, factor PRESENT): 2.4%; CD43 expressing cells (DAY 17, factor PRESENT): 9.2%; CD45 expressing cells (DAY 17, factor PRESENT): 8.8%; FLK-1 expressing cells (DAY 17, factor PRESENT): 2.0%
B1 | 0.8 | 1.2 | 1.0 | 0.2 | 2.2 | 0.7 | 1.1 | 0.8 | 0.2 | 1.7 | 2.2 | 2.4 | 2.3 | 2.6 | 0.7 | 1.8 | 2.0 | 2.3 | 1.5 | 0.4 | CD31 expressing cells (DAY 17, factor ABSENT): 4.8%; CD34 expressing cells (DAY 17, factor ABSENT): 2.7%; CD43 expressing cells (DAY 17, factor ABSENT): 4.9%; CD45 expressing cells (DAY 17, factor ABSENT): 4.9%; FLK-1 expressing cells (DAY 17, factor ABSENT): 1.6%; CD31 expressing cells (DAY 17, factor PRESENT): 8.6%; CD34 expressing cells (DAY 17, factor PRESENT): 2.2%; CD43 expressing cells (DAY 17, factor PRESENT): 9.1%; CD45 expressing cells (DAY 17, factor PRESENT): 8.8%; FLK-1 expressing cells (DAY 17, factor PRESENT): 2.1%
